The source of these data is patent US20260144769A1, “4-PHENYLBUTYRATE RESTORED GABA UPTAKE AND REDUCED SEIZURES IN SLC6A1 VARIANT-MEDIATED DISORDERS” (Vanderbilt University, priority 2022, published 2026).

The subject of experiment [1] is wildtype GAT-1 + GAT-1 A288V. Briefly: 3H GABA uptake, HEK293T, mixture of wildtype and mutant cDNAs ("heterozygous"). It is filed as cell-based, rat. The note with it: wildtype:A288V cDNAs 1:1; PBA 2 mM, 24 hrs. The protocol: (§1) GABA uptake activity was measured by the high-throughput 3H radio-labeling GABA uptake on a liquid scintillator with QuantaSmart. […] HEK293T cells were transfected with the wildtype or the mutant GAT-1^YFP cDNAs alone for 48 hr. […] HEK293T cells were transfected with the wildtype GAT-1^YFP alone or in mixture of the wildtype or the mutant cDNAs for 48 hr. In the mixed condition, the ratio of the wildtype GAT-1 with pcDNA or the mutant cDNAs are 1:1 with the total cDNA amount of 0.5 μg. […] Both wt and the mutant were normalized to its own DMSO treated conditions. 966 stands for the wildtype treated with CI-966 (50 μM) while 711 stands for NNC-711 (35 μM). (N=4-7 different transfections. In FIG. 4A and FIG. 4B, *P<0.05, **P<0.01, ***p<0.001 vs. wt 0. In FIG. C and FIG. 4D, *P<0.05, **P<0.01, ***p<0.001 vs. its own DMSO treated. In FIG. 4C, ns stands for no significance. One-way analysis of variance (ANOVA) and Newman-Keuls test. Values were expressed as mean±S.E.M.
(§2) The plasmid cDNA encoding enhanced yellow fluorescent protein (EYFP)-tagged rat GAT-1 has been previously described. The coding region of rGAT-1 was inserted into pEYFP-C1 (Clontech, Palo Alto, CA). QuikChange Site-directed Mutagenesis kit was utilized to introduce the GAT-1 variants into a wildtype GAT-1 plasmid. The product was then amplified via polymerase chain reaction, transformed using DH5a competent cells, and plated. A clone was chosen and grown overnight. All the GAT-1 variants were confirmed by DNA sequencing. Both the wildtype and the variant cDNAs were prepared with Qiagen Maxiprep kit.
(§3) Human embryonic kidney cells were cultured as monolayers in 100 mm^2 dishes. Cells were cultured in Dulbecco's Modified Eagle's Medium supplemented with 10% FBS and 1% penicillin/streptomycin in 37° C. in 5% CO2/95% air. Cells were maintained in culture medium until appropriate confluency for experimentation.
(§4) Briefly, cells were cultured in […] dishes for 3 days before the GABA uptake experiment in DMEM with 10% fetal bovine serum and 1% penicillin/streptomycin. The cells were then transfected with equal amounts of the wildtype or the mutant GAT-1 cDNAs (1 μg) for each condition at 24 hrs or 48 hrs after plating. GABA uptake assay was carried out 48 hrs after transfection. The cells were incubated with preincubation solution for 15 min and then incubated with preincubation solution containing 1 μci/mL 3H GABA and 10 μM unlabeled GABA for 30 min at room temperature. After washing, the cells were lysed with 0.25 N NaOH for 1 hr. Glacial acetic acid was added, and lysates were then determined on a liquid scintillator with QuantaSmart. The flux of GABA (pmol/μg/min) was averaged with at least triplets for each condition at each transfection. The average counting was taken as n=1. The untransfected condition was taken as a baseline that was subtracted from both the wildtype and the mutant conditions. The pmol/μg/min in the mutant was then normalized to the wildtype from each experiment, which was arbitrarily taken as 100%. The protocols for GABA reuptake assay in cultured mouse astrocytes, neuron or iPSC derived cells were modified from the GABA uptake protocol on HEK 293T cells. GAT-1 inhibitors CL-966 and NNC-711 were applied each time to make sure the radioactive counts were specific.
(§5) The working solution was stored at 4° C.

In experiment [2] the test system is wildtype GAT-1 + GAT-1 D410E. Described as above. Format: cell-based, rat. The note with it: wildtype:D410E cDNAs 1:1; PBA 2 mM, 24 hrs. The protocol:
as §1, §2, §3, §4, §5

The subject of another experiment is GAT-1. Briefly: GAT-1 protein expression in brain regions of SLC6A1^+/S295L heterozygous mice. The note with it: S295L het; cerebellum; PBA 100 mg/kg, 7 days. It is filed as in vivo, mouse.
Source text: FIGS. 8C-D show integrated density values (IDVs) for total GAT-1 from wild-type and het KI were normalized to the Na^+/K^+ ATPase or anti-glyceraldehyde-3-phosphate dehydrogenase (GAPDH) loading control (LC) in each specific brain region and plotted. N=4 from 4 pairs of mice. […] The vehicle treated in each brain region was taken as 1. N=4 from 4 pairs of mice for FIG. 8C, FIG. 8D, FIG. 8G and FIG. 8H, Values were expressed as mean±S.E.M. One way ANOVA or unpaired t test.
as §5
Data were expressed as mean±SEM. Proteins were quantified by Odyssey software and data were normalized to loading controls and then to the wildtype subunit protein, which was arbitrarily taken as 1 in each experiment. Fluorescence intensities from confocal microscopy experiments were determined using MetaMorph imaging software, and the measurements were carried out in ImageJ. For statistical significance, one-way or two-way analysis of variance (ANOVA) with post hoc Dunnett or Newman-Keuls test were used. In some cases, unpaired t-test or one sample t-test was performed (GraphPad Prism, La Jolla, CA), and statistical significance was taken as p<0.05.

In the next experiment the test system is neural progenitor cells. Briefly: GABA uptake in neural progenitor cells. Format: cell-based. As to conditions: NPCs; data not shown. As for the experimental part: NPCs were differentiated from iPSCs at passage 22-24 with differentiation of neural progenitor cells (NPCs) was induced by STEMdiff SMADi Neural induction kit from […]. iPSCs were seeded in a Geltrex coated dish at a density of ˜2×10^6 cells/per one 35 mm^2 dish or 6 well plate. The medium was refreshed daily, and the cells were passaged at day 5-7. NPCs at Passage 1 which was at least 10-12 days after neural induction were used for this study.
Briefly, cells were cultured in […] dishes for 3 days before the GABA uptake experiment in DMEM with 10% fetal bovine serum and 1% penicillin/streptomycin. The cells were then transfected with equal amounts of the wildtype or the mutant GAT-1 cDNAs (1 μg) for each condition at 24 hrs or 48 hrs after plating. GABA uptake assay was carried out 48 hrs after transfection. The cells were incubated with preincubation solution for 15 min and then incubated with preincubation solution containing 1 μci/mL 3H GABA and 10 μM unlabeled GABA for 30 min at room temperature. After washing, the cells were lysed with 0.25 N NaOH for 1 hr. Glacial acetic acid was added, and lysates were then determined on a liquid scintillator with QuantaSmart. The flux of GABA (pmol/μg/min) was averaged with at least triplets for each condition at each transfection. The average counting was taken as n=1. […]

`O=C(O)CCCc1ccccc1` [PBA, 4-phenylbutyric acid]: the “GABA uptake normalized to its own DMSO treated condition” value is 1.248±0.053 in experiment [1] and 1.17±0.035 in experiment [2]. Also, the “GAT-1 expression vs. same brain region of vehicle treated mice taken as 1” value in the experiment with GAT-1 was determined as 1.03±0.03. Also, the “GABA uptake in neural progenitor cells after PBA treatment” value with neural progenitor cells is given as “increase”.
